The text below walks through data of patent US12667126B2, “Malonyl steviol glycosides and their comestible use” (Firmenich SA, priority 2020, dated 2026).

Experiment [1] can be described thus: Sensory testing: sweet capacity in water solution versus sucrose. The settings on record: dosages 62.5 ppm and 250 ppm, ten experts, dosage for equal sweet intensity from sucrose. How it is done: Malonyl glycosides 101, 102, 104 and 105 were evaluated in water solution at two selected dosages (62.5 ppm and 250 ppm) to identify their sweet capacity. Ten experts were asked to evaluate sweet, licorice, and sweet lingering intensities on a linear scale. Then, the dosage for equal sweet intensity from sucrose was identified. Sweet capacity for each compound was calculated based on dosage difference between tested compound and sucrose.

A short description of experiment [2]: Sensory testing as sweet modifier in SG95 base. The settings on record: 30 ppm, seven experts, scale -5 to 5 vs reference; for sweet effect as sweet modifier: SG95 (PureCircle) base; for licorice effect as sweet modifier / sweet lingering effect as sweet modifier: SG95 base. The method, then:
Compound 101 was evaluated as a sweet modifier in SG95 (PureCircle) base at 30 ppm. Seven experts were asked to compare the intensity difference between reference (SG95 base) and Compound 101 was added to the sample. The taste properties (such as sweet, licorice, sweet lingering) were evaluated on a scale of −5 to 5 (−5 denoted strong masking effect and 5 denoted strong enhancing effect, 0 being the intensity of reference).
Compound 105 was evaluated as a sweet modifier in SG95 base at 30 ppm. Seven experts were asked to compare the intensity difference between reference (SG95 base) and Compound 105 was added sample. The taste properties (such as sweet, licorice, sweet lingering) were evaluated on a scale of −5 to 5 (−5 denoted strong masking effect and 5 denoted strong enhancing effect, 0 being the intensity of reference).
Compound 104 was evaluated as a sweet modifier in SG95 base at 30 ppm. Seven experts were asked to compare the intensity difference between reference (SG95 base) and Compound 104 adding sample. The taste properties (such as sweet, licorice, sweet lingering) were evaluated on a scale of −5 to 5 (−5 denoted strong masking effect and 5 denoted strong enhancing effect, 0 being the intensity of reference).

As to `C=C1C[C@@]2(C)CC[C@H]3[C@@](C)(CCC[C@@]3(C)C(=O)O[C@@H]3O[C@H](COC(=O)CC(=O)O)[C@@H](O)[C@H](O)[C@H]3O)[C@@H]2CCC1(C)O[C@@H]1O[C@H](CO)[C@@H](O)[C@H](O)[C@H]1O[C@@H]1O[C@H](CO)[C@@H](O)[C@H](O)[C@H]1O` (some centres unmarked) [Compound 102, 6′-O-malonyl stevioside], the “sweet capacity (times sweeter than sucrose)” value (“sweet capacity” below) in experiment [1] is on record as “about 150 times sweeter than sucrose”.
Regarding `C=C1C[C@@]23CC[C@H]4[C@@](C)(CCC[C@@]4(C)C(=O)O[C@@H]4O[C@H](COC(=O)CC(=O)O)[C@@H](O)[C@H](O)[C@H]4O)[C@@H]2CCC1(O[C@@H]1O[C@H](CO)[C@@H](O)[C@H](O[C@@H]2O[C@H](CO)[C@@H](O)[C@H](O)[C@H]2O)[C@H]1O[C@@H]1O[C@H](CO)[C@@H](O)[C@H](O)[C@H]1O)C3` [Compound 101, 6′-O-malonyl Rebaudioside A], in experiment [2], the “sweet effect as sweet modifier” value was “sweet enhancement effect”; the “licorice effect as sweet modifier” value is “better performance in licorice and sweet lingering masking than Rebaudioside A”; the “sweet lingering effect as sweet modifier” value was “better performance in licorice and sweet lingering masking than Rebaudioside A”. In experiment [1], the “sweet capacity” value is “about 150 times sweeter than sucrose”.
For the compound `C=C1C[C@@]23CC[C@H]4[C@@](C)(CCC[C@@]4(C)C(=O)O[C@@H]4O[C@H](CO)[C@@H](O)[C@H](O)[C@H]4O)[C@@H]2CCC1(O[C@@H]1O[C@H](CO)[C@@H](O)[C@H](O)[C@H]1O[C@@H]1O[C@H](COC(=O)CC(=O)O)[C@@H](O)[C@H](O)[C@H]1O)C3` [Compound 105, 6″′-O-malonyl stevioside], in experiment [2], the “sweet effect as sweet modifier” value was “sweet enhancement effect”. For the same compound, the “sweet capacity” value in experiment [1] was “about 100 times sweeter than sucrose”.
As to `C=C1C[C@@]23CC[C@H]4[C@@](C)(CCC[C@@]4(C)C(=O)O[C@@H]4O[C@H](COC(=O)CC(=O)O)[C@@H](O)[C@H](O)[C@H]4O)[C@@H]2CCC1(O[C@@H]1O[C@H](CO)[C@@H](O)[C@H](O)[C@H]1O)C3` [Compound 104, 6′-O-malonyl rubusoside], in experiment [2], the “sweet effect as sweet modifier” value is “sweet enhancement effect”; the “licorice effect as sweet modifier” value is “performed well on tests for licorice and lingering masking effect”; the “sweet lingering effect as sweet modifier” value was “performed well on tests for licorice and lingering masking effect”. Moreover, the “sweet capacity” value in experiment [1] is listed as “about 120 times sweeter than sucrose”.
